The nature of data set [1]: Cytotoxicity of compounds, MTT test, HEK293A. The following applies: human, HEK293A cells, compound alone, read-out: CC50 HEK 293A. The class given is cell-based. The procedure: (§1) The cytotoxicity of the compounds to HeLa (human cervical cancer) and HEK293A (human embryonic kidney) cell lines was determined using standard colorimetric MTT-test. Cells were seeded in 96-well plates (5000 cells per well) and cultured in DMEM medium (Invitrogen, Carlsbad, CA, USA) supplemented with 10% fetal bovine serum (FBS) (Invitrogen), penicillin (100 units/mL), and streptomycin (100 μg/mL) at 37 °C and 5% CO2 in a humid atmosphere. Control wells contained 1% DMSO. At 30–50% confluence, the tested compounds were added to the medium. To determine the cytotoxicity of Tdp1 inhibitors, the cells were allowed to attach for 24 h and were treated with compounds with concentrations ranging from 1 to 100 μM for 72 h at 37 °C. All measurements were repeated three times.
In general terms: Formazan colour is commonly taken as a measure of viable cells.

A short description of data set [2]: Cytotoxicity of compounds, MTT test, HeLa. In kind it is cell-based. The following applies: human, HeLa cells, compound alone. On the procedure: as §1
In a further data set the target is T1, TDP1 (Homo sapiens, UniProt Q9NUW8).
T1 construct: made in house
T1 sequence (Q9NUW8 whole entry): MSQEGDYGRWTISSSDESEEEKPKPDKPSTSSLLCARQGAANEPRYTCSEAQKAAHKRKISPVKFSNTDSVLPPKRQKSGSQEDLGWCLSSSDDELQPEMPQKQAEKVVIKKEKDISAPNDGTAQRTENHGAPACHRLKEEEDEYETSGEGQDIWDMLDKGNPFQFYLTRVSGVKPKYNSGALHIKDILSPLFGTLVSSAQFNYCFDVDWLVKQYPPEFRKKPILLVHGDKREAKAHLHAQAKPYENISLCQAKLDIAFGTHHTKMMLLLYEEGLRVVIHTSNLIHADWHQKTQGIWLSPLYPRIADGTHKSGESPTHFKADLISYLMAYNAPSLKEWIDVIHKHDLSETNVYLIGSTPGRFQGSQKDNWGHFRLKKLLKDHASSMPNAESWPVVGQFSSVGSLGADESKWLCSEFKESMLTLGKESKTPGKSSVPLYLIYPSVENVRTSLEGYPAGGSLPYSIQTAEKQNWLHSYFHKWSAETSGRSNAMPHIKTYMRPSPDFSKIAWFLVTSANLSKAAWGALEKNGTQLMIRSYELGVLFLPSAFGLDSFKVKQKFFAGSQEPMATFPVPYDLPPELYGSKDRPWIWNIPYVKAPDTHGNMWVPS
Description: Real-time fluorescence detection of TDP1 activity (FAM/BHQ1 oligonucleotide biosensor). In kind it is biochemical. An excerpt: To determine the inhibitory properties of the new compounds against TDP1 we used a previously designed real-time oligonucleotide biosensor with 5(6)-carboxyfluorescein (FAM) at the 5′ end and fluorophore quencher BHQ1 (Black Hole Quencher-1) at the 3′-end.
The biosensor, 16-mer DNA oligonucleotide (5′-[FAM] AAC GTC AGGGTC TTC C [BHQ]-3′) was synthesized in the Laboratory of Nucleic Acid Chemistry at the Institute of Chemical Biology and Fundamental Medicine (Novosibirsk, Russia). Real-time fluorescence detection of TDP1 enzyme activity was carried out as described. The recombinant TDP1 was purified as described, using plasmid pET 16B-TDP1, kindly provided by Dr. K.W. Caldecott (University of Sussex, Brighton, UK). To the reaction mixture (200 μL) containing 50 nM oligonucleotide in buffer (50 mM Tris-HCl, pH 8.0, 50 mM NaCl, and 7 mM β-mercaptoethanol), varied concentrations of the tested compounds and purified TDP1 in a final concentration of 1.5 nM were added.
Fluorescence intensity was measured (Ex485/Em520 nm) using POLARstar OPTIMA fluorimeter (BMG LABTECH, GmbH, Ortenberg, Germany) every 1 min for 7 min. The half maximal inhibitory concentrations (IC50) were determined using a six-point concentration response curve and calculated using MARS Data Analysis 2.0 (BMG LABTECH). At least three independent experiments were carried out to obtain the IC50 values.

Another data set deals with HEK293A cells. Description: Effect of compounds on topotecan cytotoxicity, MTT test, HEK293A. The following applies: 10 µM compound, result in words. The class given is cell-based, human. The procedure:
as §1
To study the effect of the compounds on the cytotoxicity of topotecan, an aqueous solution of topotecan was used at concentrations from 0.2 to 2 μM for HeLa cells and from 0.05 to 0.5 μM for HEK293A cells against the background of 10 μM of the compounds. Cells treated with compounds alone without topotecan were used as controls.

Where [3] appears, read: Table 1, recombinant TDP1 1.5 nM, 50 nM oligonucleotide, read-out: TDP1 inhibitory activities (IC50).
[4] abbreviates: Table 2, TDP1 IC50, partly rounded, read-out: IC50.

The structures appear in SMILES notation. Like-named read-outs stand apart in the source and are kept apart here. Some results are limits rather than exact numbers.

The results in this text go back to paper PMC10253161, “New 5-Hydroxycoumarin-Based Tyrosyl-DNA Phosphodiesterase I Inhibitors Sensitize Tumor Cell Line to Topotecan” (International Journal of Molecular Sciences, 2023).

Consider `Cc1c(-c2ccc(Br)cc2)c(=O)oc2cccc(OCCC(C)CCCC(C)C)c12` (stereo not drawn) [34b, 3-(4-Bromophenyl)-5-(3,7-dimethyloctyloxy)-4-methyl-2H-chromen-2-one], for which the melting point (as a rule, the temperature of the solid-liquid transition) was found to be 137 °C.

Consider `CC(C)=CCC/C(C)=C/COc1cccc2oc(=O)c(-c3ccc(Br)cc3)c(C)c12` [34a, (E)-3-(4-Bromophenyl)-5-(3,7-dimethylocta-2,6-dienyloxy)-4-methyl-2H-chromen-2-one], for which the melting point was 93 °C. The CC50 (as a rule, the concentration giving 50% cytotoxicity) at 72 h in data set [1] was 53 ± 1.2 µM. In addition, it took 32 ± 3 µM to reach half-maximal cytotoxicity in data set [2] (CC50 at 72 h). Further, the IC50 (commonly the concentration that inhibits the measured activity by half) on TDP1 (setting [3]) worked out at 1.06 ± 0.06 µM. The IC50 on TDP1 (setting [4]) is 1.06 ± 0.06 µM.

As for `Cc1c(-c2ccccc2Br)c(=O)oc2cccc(OCC3=CC[C@H]4C[C@@H]3C4(C)C)c12` [36c, 3-(2-Bromophenyl)-5-(((1R,5S)-6,6-dimethylbicyclo[3.1.1]hept-2-en-2-yl)methoxy)-4-methyl-2H-chromen-2-one], the melting point is 157 °C. The CC50 at 72 h in data set [1] is over 100 µM. Also, the CC50 at 72 h in data set [2] was determined as 73.5 ± 0.6 µM. The IC50 at TDP1 (setting [3]) turned out to be 4.36 ± 1.14 µM. The IC50 at TDP1 (setting [4]) turned out to be 4.36 ± 1.14 µM.

Compound `CC(C)=CCC/C(C)=C/COc1cccc2oc(=O)c(-c3ccccc3[N+](=O)[O-])c(C)c12` [38a, (E)-5-(3,7-Dimethylocta-2,6-dienyloxy)-4-methyl-3-(2-nitrophenyl)-2H-chromen-2-one] displayed a melting point of 73 °C. The CC50 at 72 h in data set [1] was over 100 µM. In data set [2], the CC50 at 72 h was over 100 µM. Moreover, the “Effect on the cytotoxic effect of topotecan, HEK293A” value with HEK293A cells is recorded as “protect cells from the cytotoxic effects of topotecan”. The IC50 on TDP1 (setting [3]) worked out at 1.03 ± 0.08 µM. Further, the IC50 at TDP1 (setting [4]) came to 1.03 ± 0.08 µM.

`COc1ccccc1-c1c(C)c2c(OC/C=C(\C)CCC=C(C)C)cccc2oc1=O` [37a, (E)-5-(3,7-Dimethylocta-2,6-dienyloxy)-3-(2-methoxyphenyl)-4-methyl-2H-chromen-2-one] returned a melting point of 99 °C. Besides, the CC50 at 72 h in data set [1] worked out at 16 ± 0.7 µM. The compound also yielded a CC50 at 72 h in data set [2] of 18 ± 10 µM. Further, the 50% inhibitory concentration (IC50) at TDP1 (setting [3]) stood at 1.22 ± 0.04 µM. Further, the IC50 at TDP1 (setting [4]) stood at 1.22 ± 0.04 µM.

For `Cc1c(-c2ccc(F)cc2)c(=O)oc2cccc(OCCC3=CC[C@H]4C[C@@H]3C4(C)C)c12` [33d, 5-(2-((1R,5S)-6,6-Dimethylbicyclo[3.1.1]hept-2-en-2-yl)ethoxy)-3-(4-fluorophenyl)-4-methyl-2H-chromen-2-one], the melting point was determined as 114 °C. Besides, the IC50 on TDP1 (setting [3]) was 2.51 ± 0.14 µM.

Compound `COc1ccccc1-c1c(C)c2c(OCC3=CC[C@H]4C[C@@H]3C4(C)C)cccc2oc1=O` [37c, 5-(((1R,5S)-6,6-Dimethylbicyclo[3.1.1]hept-2-en-2-yl)methoxy)-3-(2-methoxyphenyl)-4-methyl-2H-chromen-2-one] came in with a melting point of 164 °C. The CC50 at 72 h in data set [1] amounted to 52.3 ± 0.9 µM. This compound also displayed a CC50 at 72 h in data set [2] of 72 ± 2 µM. Also, the “Effect on the cytotoxic effect of topotecan, HEK293A” value in the data set on HEK293A cells is recorded as “protect cells from the cytotoxic effects of topotecan”. For the same compound, on TDP1 (setting [3]), the IC50 is 0.79 ± 0.06 µM. The IC50 on TDP1 (setting [4]) stood at 0.79 ± 0.06 µM.

`Cc1c(-c2ccc(F)cc2)c(=O)oc2cccc(OCCC(C)CCCC(C)C)c12` (stereo not drawn) [33b, 5-(3,7-Dimethyloctyloxy)-3-(4-fluorophenyl)-4-methyl-2H-chromen-2-one] had a melting point of 114 °C. The CC50 at 72 h in data set [1] was 40 ± 10 µM. In data set [2], this compound gave a CC50 at 72 h of over 100 µM. The half-inhibitory concentration (IC50) on TDP1 (setting [3]) was 0.29 ± 0.07 µM. Moreover, the IC50 at TDP1 (setting [4]) came out at 0.29 ± 0.07 µM.

For `COc1ccc(-c2c(C)c3c(OCC4=CC[C@H]5C[C@@H]4C5(C)C)cccc3oc2=O)cc1` [35c, 5-(((1R,5S)-6,6-Dimethylbicyclo[3.1.1]hept-2-en-2-yl)methoxy)-3-(4-methoxyphenyl)-4-methyl-2H-chromen-2-one], the values for the CC50 at 72 h in data set [1] and in data set [2] were over 100 µM and 73 ± 6 µM, respectively. In addition, the figures for the IC50 on TDP1 (setting [3]) and at TDP1 (setting [4]) were 1.14 ± 0.15 µM and 1.1 ± 0.2 µM, respectively.

`Cc1c(-c2ccc(F)cc2)c(=O)oc2cccc(OCC3=CC[C@H]4C[C@@H]3C4(C)C)c12` [33c, 5-(((1R,5S)-6,6-Dimethylbicyclo[3.1.1]hept-2-en-2-yl)methoxy)-3-(4-fluorophenyl)-4-methyl-2H-chromen-2-one]: the melting point was determined as 152 °C. The CC50 at 72 h in data set [1] is over 100 µM. This compound returned a CC50 at 72 h in data set [2] of 89 ± 7 µM. Also, at TDP1 (setting [3]), the IC50 was 5.25 ± 0.04 µM. The IC50 on TDP1 (setting [4]) was determined as 5.25 ± 0.04 µM.

As to `COc1ccccc1-c1c(C)c2c(OCCC(C)CCCC(C)C)cccc2oc1=O` (stereo not drawn) [37b, 5-(3,7-Dimethyloctyloxy)-3-(2-methoxyphenyl)-4-methyl-2H-chromen-2-one], the melting point stood at 114 °C. At TDP1 (setting [3]), the IC50 came out at 2.6 ± 0.35 µM.

As to `CC(C)=CCC/C(C)=C/COc1cccc2oc(=O)c(-c3ccccc3Br)c(C)c12` [36a, (E)-3-(2-Bromophenyl)-5-(3,7-dimethylocta-2,6-dienyloxy)-4-methyl-2H-chromen-2-one], the results for the CC50 at 72 h in data set [1] and in data set [2] were 59 ± 6 µM and 49 ± 2 µM, respectively. Further, the IC50 came to 0.85 ± 0.15 µM on TDP1 (setting [3]) and 0.9 ± 0.2 µM on TDP1 (setting [4]).

Compound `COc1ccccc1-c1c(C)c2c(OCCC3=CC[C@H]4C[C@@H]3C4(C)C)cccc2oc1=O` [37d, 5-(2-((1R,5S)-6,6-Dimethylbicyclo[3.1.1]hept-2-en-2-yl)ethoxy)-3-(2-methoxyphenyl)-4-methyl-2H-chromen-2-one] came in with a melting point of 135 °C. Moreover, the CC50 at 72 h in data set [1] is 87 ± 7 µM. It took 48 ± 4 µM to reach half-maximal cytotoxicity in data set [2] (CC50 at 72 h). The IC50 on TDP1 (setting [3]) was found to be 3.93 ± 0.77 µM. Further, the IC50 on TDP1 (setting [4]) was determined as 3.9 ± 0.8 µM.

In the case of `Cc1c(-c2ccccc2[N+](=O)[O-])c(=O)oc2cccc(OCC3=CC[C@H]4C[C@@H]3C4(C)C)c12` [38c, 5-(((1R,5S)-6,6-Dimethylbicyclo[3.1.1]hept-2-en-2-yl)methoxy)-4-methyl-3-(2-nitrophenyl)-2H-chromen-2-one], the half-maximal cytotoxic concentration (CC50) at 72 h is 32 ± 13 µM in data set [1] and 83 ± 3 µM in data set [2]. The IC50 at TDP1 (setting [3]) is 3.83 ± 0.29 µM; on TDP1 (setting [4]) it was 3.8 ± 0.3 µM.

With `Cc1c(-c2ccccc2[N+](=O)[O-])c(=O)oc2cccc(OCCC(C)CCCC(C)C)c12` (stereo not drawn) [38b, 5-(3,7-Dimethyloctyloxy)-4-methyl-3-(2-nitrophenyl)-2H-chromen-2-one], the melting point was found to be 61 °C. For the same compound, the IC50 on TDP1 (setting [3]) stood at 2.18 ± 0.13 µM.

Regarding `COc1ccc(-c2c(C)c3c(OC/C=C(\C)CCC=C(C)C)cccc3oc2=O)cc1` [35a, (E)-5-(3,7-Dimethylocta-2,6-dienyloxy)-3-(4-methoxyphenyl)-4-methyl-2H-chromen-2-one], the melting point worked out at 85 °C. The CC50 at 72 h in data set [1] is over 100 µM. For the same compound, the CC50 at 72 h in data set [2] was over 100 µM. Besides, the IC50 on TDP1 (setting [3]) worked out at 6.63 ± 1.12 µM. Further, the IC50 on TDP1 (setting [4]) came out at 7 ± 1 µM.

`COc1ccc(-c2c(C)c3c(OCCC(C)CCCC(C)C)cccc3oc2=O)cc1` (stereo not drawn) [35b, 5-(3,7-Dimethyloctyloxy)-3-(4-methoxyphenyl)-4-methyl-2H-chromen-2-one]: the CC50 at 72 h in data set [1] is over 100 µM; in data set [2], 90.7 ± 0.5 µM. For the same compound, the figures for the IC50 at TDP1 (setting [3]) and at TDP1 (setting [4]) were 0.37 ± 0.16 µM and 0.4 ± 0.2 µM, respectively.

`Cc1c(-c2ccccc2Br)c(=O)oc2cccc(OCCC(C)CCCC(C)C)c12` (stereo not drawn) [36b, 3-(2-Bromophenyl)-5-(3,7-dimethyloctyloxy)-4-methyl-2H-chromen-2-one] registered a melting point of 73 °C. Besides, the IC50 at TDP1 (setting [3]) is at least 50 µM.
